Results from patent US20250011826A1, “mRNA CAP ANALOGUE AND USE THEREOF” (HANMI FINE CHEMICAL CO., LTD., priority 2021, published 2025).

Tests used:
T7 RNA polymerase = T7 RNA polymerase (Escherichia phage T7, UniProt P00573); test: In vitro transcription of luciferase mRNA by co-transcriptional capping (IVT yield); type: biochemical; settings: 8 mM cap analog, luciferase DNA template, 37° C. 2 to 3 hours; compared with Cleancap AG(3′OMe) designated as 100%; FIG. 4
Experimental: For the mRNA synthesis reaction using the compounds prepared in Example 15 and Example 16 above, a transcription buffer was used, and the composition of the buffer was Tris-Cl buffer: spermidine:Triton X=4:2:1 volume ratio. In the buffer, 50 μg/ml luciferase DNA transcription template, 10 mM ATP, 10 mM CTP, 10 mM UTP, 2 mM GTP, and 8 mM compound prepared in Example 15 or Example 16, 300 KU/ml T7 RNA polymerase, 2 KU/ml RNase inhibitor protein, 20 U/ml inorganic pyrophosphatase, 40 mM Tris-HCl (pH 8.0), 50 mM magnesium chloride, and 10 mM dithiothreitol were added to prepare the transcription reaction mixture. […] The concentration of the purified mRNA sample was determined using a fluorometer instrument, and the total amount of mRNA was calculated by multiplying the concentration and reaction volume. Then, in order to derive the mRNA in vitro transcription (IVT) yield, the total amount of mRNA synthesized using each different cap analog was divided by the input L-DNA content to quantify the IVT yield value according to the cap analog. […] This may be calculated using [Equation 1] below. […]

HeLa cells = test: Translation of luciferase mRNA in HeLa cells (luciferase activity after transfection of capped mRNA); type: cell-based
Experimental: The translational activity of the mRNAs generated by the IVT reactions of each Example 15, Example 16, and ^7mG(3OMe)pppA(2′OMe)pG was evaluated by transfecting the corresponding mRNAs into the HeLa cell line. All mRNAs synthesized through IVT reaction before transfection were subjected to poly(A) tailing process. Specifically, IVT mRNA, whose mRNA synthesis reaction was terminated by adding DNase 1, was mixed with IVT mRNA:10× poly (A) polymerase reaction buffer:10 mM ATP solution:poly (A) polymerase enzyme (4 KU/ml):nuclease-free water=20:10:10:2:58 ratio (volume/volume), reacted at 37° C. for 30 minutes to 1 hour, and then incubated at 4° C. to terminate the reaction. […] Cells were harvested 6, 12, and 24 hours after transfection, and luciferase activity was measured using Renilla-Glo™ Luciferase Assay kit (Promega catalog #E2710) according to the manufacturer's recommendations: After removing the medium from the transfected cells, 50 μl phosphate buffer solution (PBS) was added. Afterwards, 50 μl of Renilla-Glo™ Luciferase Assay reagent was added, mixed, and incubated for 10 minutes, and then luciferase activity was detected using Varioskan LUX Multimode Microplate Reader (Thermo Fisher) (FIG. 5). […]

Chain of T7 RNA polymerase (P00573 whole entry): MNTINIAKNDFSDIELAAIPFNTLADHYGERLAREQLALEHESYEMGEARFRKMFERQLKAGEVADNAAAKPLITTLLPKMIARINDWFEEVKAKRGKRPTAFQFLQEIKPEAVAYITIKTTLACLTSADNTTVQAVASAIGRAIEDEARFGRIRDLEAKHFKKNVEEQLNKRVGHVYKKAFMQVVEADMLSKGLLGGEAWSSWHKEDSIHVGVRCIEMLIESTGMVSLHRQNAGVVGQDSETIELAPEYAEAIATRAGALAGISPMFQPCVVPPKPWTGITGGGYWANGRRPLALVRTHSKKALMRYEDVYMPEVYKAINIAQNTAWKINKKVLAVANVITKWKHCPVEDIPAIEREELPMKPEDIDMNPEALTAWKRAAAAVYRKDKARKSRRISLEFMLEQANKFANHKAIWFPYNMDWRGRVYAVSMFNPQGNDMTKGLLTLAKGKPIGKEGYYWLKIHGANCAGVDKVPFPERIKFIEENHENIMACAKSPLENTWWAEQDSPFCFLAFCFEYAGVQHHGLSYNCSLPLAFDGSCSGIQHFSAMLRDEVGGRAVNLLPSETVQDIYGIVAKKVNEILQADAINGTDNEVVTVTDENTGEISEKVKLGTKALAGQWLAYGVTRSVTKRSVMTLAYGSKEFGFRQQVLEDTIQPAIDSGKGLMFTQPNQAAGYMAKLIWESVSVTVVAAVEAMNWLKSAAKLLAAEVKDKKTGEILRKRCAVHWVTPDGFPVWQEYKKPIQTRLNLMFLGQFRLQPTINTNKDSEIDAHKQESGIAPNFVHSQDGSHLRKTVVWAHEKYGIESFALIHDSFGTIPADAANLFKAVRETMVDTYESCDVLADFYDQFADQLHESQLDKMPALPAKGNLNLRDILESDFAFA

Compound	IVT yield of mRNA relative to ^7mG(3′OMe)pppA(2′OMe)pG (T7 RNA polymerase)	luciferase activity of mRNA capped with the compound (HeLa cells; 100 ng mRNA per well, 6 to 24 hours after transfection, compared with mRNA capped with ^7mG(3′OMe)pppA(2′OMe)pG, FIG. 5)	residual rate of protein expressed by capped mRNA (HeLa cells; 24 hours after transfection, inferred, compared with ^7mG(3′OMe)pppA(2′OMe)pG, FIG. 6)
CO[C@@H]1[C@H](OP(=O)(O)OC[C@H]2O[C@@H](n3cnc4c(=O)[nH]c(N)nc43)[C@H](O)[C@@H]2O)[C@@H](COP(=O)(O)OP(=O)(O)OP(=O)(O)OC[C@H]2O[C@@H](n3c[n+](C)c4c(=O)[nH]c(N)nc43)[C@H](OC(=O)C(C)(C)C)[C@@H]2OC(=O)C(C)(C)C)O[C@H]1n1cnc2c(N)ncnc21.[Na+].[Na+].[Na+] [Example 15, ^7mG(2′,3′ Pivaloyl)pppA(2′ OMe)pG]	almost the same yield	–	–
^7mG(2′ or 3′monopivaloyl)pppA(2′OMe)pG [Example 16]	almost the same yield	higher luciferase activity	higher
